Experimental data: patent publication US9783547B2, “Water soluble 4-azapodophyllotoxin analogs” (CENTRE NATIONAL DE LA RECHERCHE SCIENTIFIQUE (CNRS), priority 2014, dated 2017)
Read-outs that look alike come from different tables or passages of the source.

Legend:
[1] = system: Eahy 926 endothelial cells (preformed cords on Matrigel); experiment: Endothelial cell cords disruption assay; assay type: cell-based, human; details: 2 hour exposure
Experimental: Eahy 926 endothelial cells were seeded onto a Matrigel layer in 6 well plates and allowed to form microvascular structures for 48 h (cords). […] In this experiment the control solvent used was 1% DMSO final concentration, because this solvent was required to solubilize combretastatin A4 used as a positive internal control. Digital photographs of the same plate region were taken before drug application and two hours after.
Another typical effect of antivascular agents is the disruption of preformed cords of endothelial cells grown on a Matrigel layer.

human cancer cell lines = experiment: Cytotoxicity on the whole panel of human cancer cell lines (MTS); assay type: cell-based; details: all human cancer cell lines of Table 2; read-out: IC50 values, range over all cell lines
K562 = experiment: Cytotoxicity assay for human cancer cells (MTS); assay type: cell-based; details: K562 chronic myelogenous leukemia, 72 h, read-out: IC 50 value
Experimental: (§1) Human cells were grown in DMEM medium supplemented with 10% fetal calf serum (Invitrogen), in the presence of penicillin, streptomycin and amphotericin B (Fungizone) in 75 cm^2 flask under 5% CO2. Cells were plated in 96-well tissue culture microplates at a density of 650 cells/well in 200 μl medium and treated 24 h later with the compound dissolved in DMSO at concentrations ranging from 0.5-10 μM applied using an automated benchstation (Beckman Biomek 3000). Controls received the same volume of DMSO as the test wells (1% final concentration). After a 72 h exposure time, MTS reagent (Promega) was added and incubated for 3 h at 37° C. and the absorbance was read at 490 nm. Results are expressed as the inhibition of cell proliferation calculated as the ratio [(OD490 treated/OD490 control)×100].

SK-OV3 = experiment: Cytotoxicity assay for human cancer cells (MTS); assay type: cell-based; details: SK-OV-3, SK-OV3 ovarian adenocarcinoma, 72 h, read-out: IC 50 value
Experimental: as §1

A2780cis = experiment: Cytotoxicity assay for human cancer cells (MTS); assay type: cell-based; details: A2780cis ovarian carcinoma-cisplatin resistant, 72 h, read-out: IC 50 value
Experimental: as §1

U937 = experiment: Cytotoxicity assay for human cancer cells (MTS); assay type: cell-based; details: U-937, U937 histiocytic lymphoma, 72 h, read-out: IC 50 value
Experimental: as §1

A2780 = experiment: Cytotoxicity assay for human cancer cells (MTS); assay type: cell-based; details: A2780 ovarian carcinoma, 72 h, read-out: IC 50 value
Experimental: as §1

OVCAR8 = experiment: Cytotoxicity assay for human cancer cells (MTS); assay type: cell-based; details: OVCAR-8, OVCAR8 ovarian adenocarcinoma, 72 h, read-out: IC 50 value
Experimental: as §1

EPC = experiment: Cytotoxicity assay for human cancer cells (MTS); assay type: cell-based
Experimental: as §1

MDA435 = experiment: Cytotoxicity assay for human cancer cells (MTS); assay type: cell-based; details: MDA435 breast ER− (highly metastatic to lungs), 72 h, read-out: IC 50 value
Experimental: as §1

PC3 = experiment: Cytotoxicity assay for human cancer cells (MTS); assay type: cell-based
Experimental: as §1

U87 = experiment: Cytotoxicity assay for human cancer cells (MTS); assay type: cell-based; details: U-87 MG, U87 brain glioblastoma, astrocytoma, 72 h, read-out: IC 50 value
Experimental: as §1

HCT116 = experiment: Cytotoxicity assay for human cancer cells (MTS); assay type: cell-based; details: HCT-116, HCT116 colorectal carcinoma, 72 h, read-out: IC 50 value
Experimental: as §1

HL60R = experiment: Cytotoxicity assay for human cancer cells (MTS); assay type: cell-based; details: HL60R acute promyelocytic leukemia-multidrug resistant, 72 h, read-out: IC 50 value
Experimental: as §1

SF268 = experiment: Cytotoxicity assay for human cancer cells (MTS); assay type: cell-based; details: SF-268, SF268 brain glioma, 72 h, read-out: IC 50 value
Experimental: as §1

A549 = experiment: Cytotoxicity assay for human cancer cells (MTS); assay type: cell-based; details: A549 lung carcinoma, 72 h, read-out: IC 50 value
Experimental: as §1

MCF7 = experiment: Cytotoxicity assay for human cancer cells (MTS); assay type: cell-based; details: MCF7 breast ER+ (hormone dependent), 72 h, read-out: IC 50 value
Experimental: as §1

MCF7R = experiment: Cytotoxicity assay for human cancer cells (MTS); assay type: cell-based; details: MCF7R breast ER+ (multidrug resistant), 72 h, read-out: IC 50 value
Experimental: as §1

HL60 = experiment: Cytotoxicity assay for human cancer cells (MTS); assay type: cell-based; details: HL-60, HL60 acute promyelocytic leukemia, 72 h, read-out: IC 50 value
Experimental: as §1

KB = experiment: Cytotoxicity assay for human cancer cells (MTS); assay type: cell-based; details: KB epidermoid carcinoma, 72 h, read-out: IC 50 value
Experimental: as §1

MIA PaCa-2 = experiment: Cytotoxicity assay for human cancer cells (MTS); assay type: cell-based; details: MIA PaCa-2 pancreatic carcinoma, 72 h, read-out: IC 50 value
Experimental: as §1

LnaCap = experiment: Cytotoxicity assay for human cancer cells (MTS); assay type: cell-based
Experimental: as §1

MDA231 = experiment: Cytotoxicity assay for human cancer cells (MTS); assay type: cell-based; details: MDA-MB-231, MDA231 breast ER− (hormone independent), 72 h, read-out: IC 50 value
Experimental: as §1

HT29 = experiment: Cytotoxicity assay for human cancer cells (MTS); assay type: cell-based; details: HT-29, HT29 colorectal adenocarcinoma, 72 h, read-out: IC 50 value
Experimental: as §1

tubulin = experiment: Tubulin polymerization inhibition assay (DAPI fluorescence); assay type: biochemical; details: tubulin 1 mg/ml, DAPI; read-out: IPT (inhibition of tubulin polymerization) IC50
Description: Fluorescence was then read at the excitation wavelength of 360 nm and emission of 450 nm.

colon 26 carcinoma = experiment: Antitumor activity in colon 26 carcinoma bearing mice; details: for Tumor Log10 cell kill: [(T − C)/3.32] × Td, Td 2 days
[2] = 31 mg/kg i.p. days 4, 5, 11, 12, 14, 15
[3] = 50 mg/kg i.p. days 4, 5, 11, 12, 14, 15

Question: COc1cc(Nc2c3c(nc4cc5c(cc24)OCO5)CCCC3=O)cc(OC)c1OC.Cl [SGR307.HCl, 6,7-(Methylenedioxy)-9-(3,4,5-trimethoxyphenylamino)-3,4-dihydroacridin-1(2H)-one, hydrochloride] was tested. Which “Lowest concentration at which destruction of endothelial cords is observed” value [1] did it give?
Answer: 0.5 µM

Question: And the IC50 (human cancer cell lines)?
Answer: 30 to 380 nM

Question: What about the IC50 (K562) of the same compound?
Answer: 83 nM

Question: And the IC50 (SK-OV3)?
Answer: 112 nM

Question: What about the IC50 (A2780cis) of the same compound?
Answer: 109 nM

Question: And the IC50 (U937)?
Answer: 121 nM

Question: And the IC50 (A2780)?
Answer: 99 nM

Question: And the IC50 (OVCAR8)?
Answer: 138 nM

Question: What about the IC50 (EPC; Homo sapiens, 72 h, EPC epithelioma (quiescent cell line), 72 h, MTS, read-out: IC 50 value) of the same compound?
Answer: 237 nM

Question: What about the IC50 (EPC; Homo sapiens, quiescent cell line EPC, values of running text, read-out: IC50 values) of the same compound?
Answer: 310 nM

Question: And the IC50 (EPC; quiescent cell line EPC, values of running text, hydrochloride, read-out: IC50 values)?
Answer: 360 nM

Question: And the IC50 (MDA435)?
Answer: 124 nM

Question: What about the IC50 (PC3; PC-3, PC3 androgen-independent prostate adenocarcinoma, value of running text, read-out: IC50) of the same compound?
Answer: 120 to 130 nM

Question: What about the IC50 (PC3; PC-3, PC3 prostate adenocarcinoma (androgen independent), 72 h, MTS, read-out: IC 50 value) of the same compound?
Answer: 98 nM

Question: What about the IC50 (U87) of the same compound?
Answer: 126 nM

Question: And the IC50 (HCT116)?
Answer: 68 nM

Question: And the IC50 (HL60R)?
Answer: 164 nM

Question: What about the IC50 (SF268) of the same compound?
Answer: 150 nM

Question: And the IC50 (A549)?
Answer: 158 nM

Question: And the IC50 (MCF7)?
Answer: 76 nM

Question: What about the IC50 (MCF7R) of the same compound?
Answer: 121 nM

Question: And the IC50 (HL60)?
Answer: 90 nM

Question: And the IC50 (KB)?
Answer: 111 nM

Question: What about the IC50 (MIA PaCa-2) of the same compound?
Answer: 109 nM

Question: What about the IC50 (LnaCap; LnaCap androgen-dependent prostate adenocarcinoma, value of running text, read-out: IC50) of the same compound?
Answer: 330 to 380 nM

Question: And the IC50 (LnaCap; LnaCap prostate adenocarcinoma (androgen dependent), 72 h, MTS, read-out: IC 50 value)?
Answer: 103 nM

Question: What about the IC50 (MDA231) of the same compound?
Answer: 79 nM

Question: What about the IC50 (HT29) of the same compound?
Answer: 129 nM

Question: What about the IC50 (tubulin) of the same compound?
Answer: 1090 nM

Question: And the “T − C (day), tumor growth delay” value (colon 26 carcinoma; [2])?
Answer: 7.7 days

Question: What about the “Time for median tumor to reach 750 mg” value (colon 26 carcinoma; [2]) of the same compound?
Answer: 21.2 days

Question: What about the “% T/C day 15” value (colon 26 carcinoma; [2]) of the same compound?
Answer: 15.4%

Question: What about the “Mean tumor vol (mm^3) day 15” value (colon 26 carcinoma; [2]) of the same compound?
Answer: 168 mm^3

Question: And the “Mean body wt change [g/mouse (day of nadir)]” value (from here on “Mean body wt change”) (colon 26 carcinoma; 31 mg/kg i.p. days 4, 5, 11, 12, 14, 15, nadir d6)?
Answer: −0.7 g/mouse

Question: What about the “Tumor Log10 cell kill” value (colon 26 carcinoma; 31 mg/kg i.p.) of the same compound?
Answer: 4.6

Question: What about the “T − C (day), tumor growth delay” value (colon 26 carcinoma; [3]) of the same compound?
Answer: 13.7 days

Question: What about the “Time for median tumor to reach 750 mg” value (colon 26 carcinoma; [3]) of the same compound?
Answer: 27.2 days

Question: What about the “% T/C day 15” value (colon 26 carcinoma; [3]) of the same compound?
Answer: 2.8%

Question: And the “Mean tumor vol (mm^3) day 15” value (colon 26 carcinoma; [3])?
Answer: 31 mm^3

Question: And the “Mean body wt change” value (colon 26 carcinoma; 50 mg/kg i.p. days 4, 5, 11, 12, 14, 15, nadir d7)?
Answer: −2.6 g/mouse

Question: What about the “Tumor Log10 cell kill” value (colon 26 carcinoma; 50 mg/kg i.p.) of the same compound?
Answer: 8.3

Question: What about the Body weight loss (colon 26 carcinoma; 80 mg/kg i.p. days 4, 5, 11, 12, 14, 15) of the same compound?
Answer: > 20%

Question: And the “Mean body wt change” value (colon 26 carcinoma; 80.6 mg/kg i.p. days 4, 5, 11, 12, 14, 15, nadir d14)?
Answer: −5.4 g/mouse
